Our source for the IC50 values is ChEMBL document CHEMBL1155583, “Steroidal saponins from Dracaena surculosa” (J Nat Prod, 2000).

≈ marks a conversion by molar mass, not a printed value.

This test relates to HL-60. The test can be described thus: Cytotoxicity against human HL60 cells by MTT assay. In kind it is functional, cell-based. Background: Tetrazolium assays rely on reduction of a dye to a coloured formazan, in cell work by metabolically active cells.

With `C[C@H]1CC[C@@]2(OC1)O[C@H]1C[C@H]3[C@@H]4CC=C5C[C@@H](O)C[C@@H](O[C@@H]6O[C@H](C)[C@H](O)[C@H](O)[C@H]6O[C@@H]6O[C@@H](C)[C@H](O)[C@@H](O)[C@H]6O)[C@]5(C)[C@H]4CC[C@]3(C)[C@H]1[C@@H]2C`, the midpoint of inhibition, the IC50, lay at 8.7 µg/mL (≈ 12 µM).

Take `C[C@@H]1CC[C@@]2(OC1)O[C@H]1C[C@H]3[C@@H]4CC=C5C[C@@H](O[C@@H]6O[C@H](CO)[C@@H](O)[C@H](O)[C@H]6O[C@@H]6O[C@@H](C)[C@H](O)[C@@H](O)[C@H]6O)CC[C@]5(C)[C@H]4CC[C@]3(C)[C@@]1(O)[C@@H]2C`: half-maximal inhibition (IC50) required 5.2 µg/mL (≈ 7.04 µM).

Compound `C[C@@H]1CC[C@@]2(OC1)O[C@H]1C[C@H]3[C@@H]4CC=C5C[C@@H](O[C@@H]6O[C@H](CO)[C@@H](O[C@@H]7O[C@@H](C)[C@H](O)[C@@H](O)[C@H]7O)[C@H](O)[C@H]6O[C@@H]6O[C@@H](C)[C@H](O)[C@@H](O)[C@H]6O)CC[C@]5(C)[C@H]4CC[C@]3(C)[C@@]1(O)[C@@H]2C` returned an IC50 of 4.2 µg/mL (≈ 4.75 µM).

As usually defined, the IC50 is the concentration at which inhibition is half-maximal. A lower IC50 goes with inhibition by little substance.
